Where “and” joins values, the source holds several entries; their conditions need not be identical. Equal entries are not always repeated. Inconclusive results and toxic doses are left out. No stated cut-off is given here; in the data, active means T/C of 150% or more; inactive means T/C below 125%.
Test system: L1210 leukemia ip in BDF1 mice, survival T/C
Test: NCI In Vivo Anticancer Drug Screen. Data for tumor model L1210 Leukemia (intraperitoneal) in B6D2F1 (BDF1) mice
Details: endpoint: mean survival time, higher = longer survival
Procedure, shortened: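 Value reflects the ratio of survival in compound-treated mice to survival in vehicle-treated controls, with both groups carrying the same transplanted tumor.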

[1] = dose: 100.0 mg/kg/injection, schedule: Q01DX001 (ip), vehicle: other
[2] = dose: 100.0 mg/kg/injection, schedule: Q01DX009 (ip), vehicle: other
[3] = dose: 100.0 mg/kg/injection, schedule: Q04DX002 (ip), vehicle: Klucel (hydroxypropylcellulose) (HPC)
[4] = dose: 200.0 mg/kg/injection, schedule: Q01DX001 (ip), vehicle: other
[5] = dose: 200.0 mg/kg/injection, schedule: Q04DX002 (ip), vehicle: Klucel (hydroxypropylcellulose) (HPC)
[6] = dose: 100.0 mg/kg/injection, schedule: Q01DX009 (ip), vehicle: Klucel (hydroxypropylcellulose) (HPC)
[7] = dose: 100.0 mg/kg/injection, schedule: Q04DX003 (ip), vehicle: Klucel (hydroxypropylcellulose) (HPC)
[8] = dose: 200.0 mg/kg/injection, schedule: Q01DX009 (ip), vehicle: Klucel (hydroxypropylcellulose) (HPC)
[9] = dose: 200.0 mg/kg/injection, schedule: Q04DX003 (ip), vehicle: Klucel (hydroxypropylcellulose) (HPC)
[10] = dose: 400.0 mg/kg/injection, schedule: Q01DX009 (ip), vehicle: Klucel (hydroxypropylcellulose) (HPC)
[11] = dose: 400.0 mg/kg/injection, schedule: Q04DX002 (ip), vehicle: Klucel (hydroxypropylcellulose) (HPC)
[12] = dose: 400.0 mg/kg/injection, schedule: Q04DX003 (ip), vehicle: Klucel (hydroxypropylcellulose) (HPC)
[13] = dose: 100.0 mg/kg/injection, schedule: Q04DX003 (ip), vehicle: saline with Tween-80
[14] = dose: 200.0 mg/kg/injection, schedule: Q04DX003 (ip), vehicle: saline with Tween-80
[15] = dose: 400.0 mg/kg/injection, schedule: Q04DX003 (ip), vehicle: saline with Tween-80
[16] = dose: 100.0 mg/kg/injection, schedule: Q01DX001 (ip), vehicle: saline
[17] = dose: 200.0 mg/kg/injection, schedule: Q01DX001 (ip), vehicle: saline
[18] = dose: 400.0 mg/kg/injection, schedule: Q01DX001 (ip), vehicle: saline
[19] = dose: 100.0 mg/kg/injection, schedule: Q04DX003 (ip), vehicle: saline
[20] = dose: 200.0 mg/kg/injection, schedule: Q04DX003 (ip), vehicle: saline
[21] = dose: 400.0 mg/kg/injection, schedule: Q04DX003 (ip), vehicle: saline
[22] = dose: 100.0 mg/kg/injection, schedule: Q01DX009 (ip), vehicle: saline with Tween-80
[23] = dose: 200.0 mg/kg/injection, schedule: Q01DX009 (ip), vehicle: saline with Tween-80
[24] = dose: 400.0 mg/kg/injection, schedule: Q01DX009 (ip), vehicle: saline with Tween-80
[25] = dose: 100.0 mg/kg/injection, schedule: Q01DX001 (ip), vehicle: carboxymethylcellulose (CMC)
[26] = dose: 200.0 mg/kg/injection, schedule: Q01DX001 (ip), vehicle: carboxymethylcellulose (CMC)
[27] = dose: 400.0 mg/kg/injection, schedule: Q01DX001 (ip), vehicle: carboxymethylcellulose (CMC)
[28] = dose: 100.0 mg/kg/injection, schedule: Q01DX009 (ip), vehicle: saline
[29] = dose: 200.0 mg/kg/injection, schedule: Q01DX009 (ip), vehicle: saline

Measured: T/C

CCCNC(=O)Oc1ccc(C2CCCCC2)cc1
inactive: [1] 100 % of control | [2] 104 % of control and 87 % of control | [3] 110 % of control | dose: 100.0 mg/kg/injection, schedule: Q04DX002 (ip), vehicle: other 105 % of control and 109 % of control | dose: 100.0 mg/kg/injection, schedule: Q04DX003 (ip), vehicle: other 100 % of control | [4] 100 % of control | dose: 200.0 mg/kg/injection, schedule: Q01DX009 (ip), vehicle: other 103 % of control and 111 % of control | [5] 100 % of control | dose: 200.0 mg/kg/injection, schedule: Q04DX002 (ip), vehicle: other 95 % of control and 111 % of control | dose: 200.0 mg/kg/injection, schedule: Q04DX003 (ip), vehicle: other 102 % of control | dose: 400.0 mg/kg/injection, schedule: Q01DX001 (ip), vehicle: other 97 % of control | dose: 400.0 mg/kg/injection, schedule: Q01DX009 (ip), vehicle: other 101 % of control and 112 % of control | dose: 400.0 mg/kg/injection, schedule: Q04DX002 (ip), vehicle: other 95 % of control and 107 % of control | dose: 400.0 mg/kg/injection, schedule: Q04DX003 (ip), vehicle: other 104 % of control

Cc1cc(OC(=O)Nc2cc(Cl)ccc2C)c(C(C)C)cc1Cl
inactive: dose: 100.0 mg/kg/injection, schedule: Q01DX001 (ip), vehicle: Klucel (hydroxypropylcellulose) (HPC) 90 % of control | [6] 102 % of control and 88 % of control | [3] 96 % of control | [7] 103 % of control | dose: 200.0 mg/kg/injection, schedule: Q01DX001 (ip), vehicle: Klucel (hydroxypropylcellulose) (HPC) 91 % of control | [8] 97 % of control | [5] 94 % of control | [9] 94 % of control | dose: 400.0 mg/kg/injection, schedule: Q01DX001 (ip), vehicle: Klucel (hydroxypropylcellulose) (HPC) 88 % of control | [10] 94 % of control and 86 % of control | [11] 91 % of control | [12] 96 % of control

N#Cc1nccnc1Cl
inactive: dose: 12.5 mg/kg/injection, schedule: Q04DX003 (ip), vehicle: saline with Tween-80 96 % of control | dose: 25.0 mg/kg/injection, schedule: Q01DX009 (ip), vehicle: other 95 % of control | dose: 25.0 mg/kg/injection, schedule: Q04DX003 (ip), vehicle: saline with Tween-80 99 % of control | dose: 50.0 mg/kg/injection, schedule: Q01DX009 (ip), vehicle: other 93 % of control | dose: 50.0 mg/kg/injection, schedule: Q04DX003 (ip), vehicle: saline with Tween-80 86 % of control | [2] 109 % of control

CC(=O)OCc1cccnc1
inactive: [13] 95 % of control | [14] 94 % of control | [15] 97 % of control

COc1ccc(Cl)cc1NC(=O)Nc1cc(C)ccc1Cl
inactive: [6] 101 % of control | [7] 90 % of control | [8] 110 % of control | [9] 95 % of control | [10] 116 % of control | [12] 95 % of control

COc1ccc(NC(=O)Oc2ccc(-c3ccccc3)cc2Cl)c(OC)c1
inactive: [6] 97 % of control | [8] 101 % of control | [10] 92 % of control

CC(=O)CC(=O)OCC1COCO1 (stereo not given)
inactive: dose: 222.0 mg/kg/injection, schedule: Q01DX Z (ip), vehicle: methylcellulose (MC) 104 % of control | dose: 333.0 mg/kg/injection, schedule: Q01DX Z (ip), vehicle: methylcellulose (MC) 95 % of control | dose: 500.0 mg/kg/injection, schedule: Q01DX Z (ip), vehicle: methylcellulose (MC) 107 % of control

O=c1[nH]cnc2c1ncn2Cc1ccc([N+](=O)[O-])cc1
inactive: [1] 96 % of control | [13] 102 % of control | [4] 98 % of control | [14] 96 % of control | [15] 94 % of control

O=C(NC12CC3CC(CC(C3)C1)C2)C(O)C(O)C(O)C(O)CO (stereo not given)
inactive: [16] 110 % of control | [17] 100 % of control | [18] 100 % of control

CC1NC(c2ccccc2)N(C(Cc2ccccc2)C(=O)O)C1=O (stereo not given)
inactive: dose: 50.0 mg/kg/injection, schedule: Q01DX001 (ip), vehicle: saline 94 % of control | [16] 89 % of control | [17] 99 % of control

Cc1cccc(Cl)[n+]1[O-]
inactive: [19] 97 % of control | [20] 97 % of control | [21] 86 % of control

COc1ccc(OC)c2c(C(O)CNC34CC5CC(CC(C5)C3)C4)cc(-c3ccc(Cl)cc3)nc12 (stereo not given)
inactive: [19] 97 % of control | [20] 92 % of control | [21] 92 % of control

OCCOc1c(Cl)cc(Cl)cc1Cl
inactive: dose: 50.0 mg/kg/injection, schedule: Q01DX009 (ip), vehicle: saline with Tween-80 100 % of control | [22] 94 % of control and 100 % of control | [13] 93 % of control | [23] 100 % of control | [14] 90 % of control | [24] 93 % of control | [15] 111 % of control

CN(C)c1c(-c2ccccc2)cc(-c2ccccc2)[nH]c1=O
inactive: [25] 95 % of control | [26] 95 % of control | [27] 88 % of control

CCOC(=O)/C(C#N)=C(\C)CC(C)C
inactive: dose: 5.0 mg/kg/injection, schedule: Q01DX001 (ip), vehicle: saline 101 % of control | dose: 10.0 mg/kg/injection, schedule: Q01DX001 (ip), vehicle: saline 95 % of control | dose: 20.0 mg/kg/injection, schedule: Q01DX001 (ip), vehicle: saline 95 % of control | dose: 40.0 mg/kg/injection, schedule: Q01DX001 (ip), vehicle: saline 98 % of control | dose: 80.0 mg/kg/injection, schedule: Q01DX001 (ip), vehicle: saline 101 % of control | [16] 98 % of control

OC1CCCN(Cc2ccccc2)C1 (stereo not given)
inactive: [16] 107 % of control | [17] 96 % of control

CC(C)(C1c2ccccc2C(=NO)c2ccccc21)[N+](=O)[O-] (stereo not given)
inactive: [22] 98 % of control | [13] 95 % of control | [23] 94 % of control | [14] 95 % of control | [24] 94 % of control | [15] 98 % of control

NNC(=O)OCc1ccccc1
inactive: dose: 25.0 mg/kg/injection, schedule: Q04DX002 (ip), vehicle: saline with Tween-80 100 % of control | dose: 50.0 mg/kg/injection, schedule: Q04DX002 (ip), vehicle: saline with Tween-80 100 % of control | dose: 100.0 mg/kg/injection, schedule: Q04DX002 (ip), vehicle: saline with Tween-80 100 % of control

Clc1ccc(/C=N/c2snc3ccccc23)cc1Cl
inactive: [3] 92 % of control | [5] 89 % of control | [11] 86 % of control

Cc1ccccc1SCC(N)=O
inactive: [7] 91 % of control | [9] 98 % of control | [12] 107 % of control

O=S1c2ccccc2S(=O)c2ccccc21 (stereo not given)
inactive: [13] 96 % of control | [14] 91 % of control | [15] 89 % of control

CCN(CC)CCOC(=O)c1cccc(N)c1
inactive: dose: 50.0 mg/kg/injection, schedule: Q01DX009 (ip), vehicle: saline 92 % of control | [28] 111 % of control | [29] 103 % of control

CC(=O)c1cccc(OC(=O)Oc2cccc(C(C)=O)c2)c1
inactive: [25] 95 % of control | [26] 90 % of control | [27] 95 % of control

CC12CCC(C3=C1OC(=O)C(c1ccccc1)(c1ccccc1)C3=O)C2(C)C (stereo not given)
inactive: [16] 105 % of control | [28] 94 % of control | [19] 103 % of control | [17] 113 % of control | [29] 102 % of control | [20] 97 % of control | [18] 97 % of control | dose: 400.0 mg/kg/injection, schedule: Q01DX009 (ip), vehicle: saline 100 % of control | [21] 103 % of control

— PubChem BioAssay AID248 (DTP/NCI, 2004)
